Entries after “also recorded” stand apart in the source; their conditions may differ.
Experiments:
Type in all cases: physicochemical
[1] = Temperature stress tests with form I, form II and form VI, PXRD; conditions: 6 h at 150° C. (closed vial)
[2] = Thermogravimetric Analysis (TGA); conditions: Decomposition; 20° C./min
Procedure: The methodology for this can be as follows. Solid compounds (˜5 mg) are placed in an aluminium pan and sealed. The instrument used for the analysis is a TA Instruments TGA 550. The same sample lots from DSC testing are used for TGA testing. Processing is completed using TRIOS software.

[3] = Dynamic Vapor Sorption (DVS) sorption isotherms, hygroscopic behaviour; conditions: for Hygroscopicity: DVS classification; for Δm (0-80%), moisture absorbed at 80% RH / Δm (0-90%), maximum water uptake: DVS, 25.0 ±1.0° C.; for Δm (0-90%), maximum water uptake: up to 90% RH; for Hysteresis: between sorption and desorption curves
Procedure: The methodology for this can be as follows. The mass of the solids is monitored as the relative humidity (RH) was deliberately changed. The RH is cycled twice from 0% to 90% to 0% in 10% steps. The temperature during measurement is kept constantly at (25.0 ±1.0° C.) Each step is held until mass stability was achieved. A camera inside the instrument captured an image at the conclusion of each stage, allowing for the observation of any visual changes in the solid form during the analysis.

C=CC(=O)NC1CCN(c2ncc3ncnc(Nc4ccc(Oc5ccc6c(c5)ncn6C)c(C)c4)c3n2)CC1 [Form I, N-{1-[8-({3-methyl-4-[(1-methyl-1H-1,3-benzodiazol-5-yl)oxy]phenyl}amino)-[1,3]diazino[5,4-d]pyrimidin-2-yl]piperidin-4-yl}prop-2-enamide]
PXRD of stressed sample [1]: Form I
PXRD of stressed sample ([1]; listed as form I): remained unchanged; also recorded: polymorphically stable
TGA change in mass [2]: 47.883%
TGA end [2]: 463.12 °C
TGA onset [2]: 419.14 °C
Hygroscopicity [3]: hygroscopic
Hygroscopicity ([3]; listed as form I): hygroscopic
Δm (0-80%), moisture absorbed at 80% RH [3]: 5.4 wt %
Δm (0-80%), moisture absorbed at 80% RH ([3]; listed as form I): 5.4 wt %
Δm (0-90%), maximum water uptake [3]: 7.3 wt %
Δm (0-90%), maximum water uptake ([3]; listed as form I): 7.3 wt %
Phase change during DVS experiment ([3]; RH cycled twice 0% to 90% to 0%): no irreversible phase changes
Hysteresis [3]: yes
Hysteresis ([3]; listed as form I): significant hysteresis

From patent US20240279230A1, “CRYSTALLINE FORMS OF A HER2 INHIBITOR” (Boehringer Ingelheim International GmbH, priority 2022, published 2024)
